Source: PMC5580309, “Molecular-scale features that govern the effects of O-glycosylation on a carbohydrate-binding module” (Chemical Science, 2015)
Bridge positions count the residues as written; N and C are the ends. Square brackets hold non-standard residues; d marks the D form. Peptide text beside a SMILES is read from it. * marks the point of attachment. X8 = O=P(O)(O)OC[C@H]1O[C@H](O[C@H]2[C@@H](O)[C@H](O)[C@@H](CO)O[C@@H]2*)[C@@H](O)[C@@H](O)[C@@H]1O; X2 = OC[C@H]1O[C@H](O[C@H]2[C@@H](O)[C@H](O)[C@@H](CO)O[C@@H]2*)[C@@H](O)[C@@H](O)[C@@H]1O; βGlcNAc = CC(=O)N[C@@H]1[C@@H](O)[C@H](O)[C@@H](CO)O[C@H]1*; X9 = OC[C@H]1O[C@H](*)[C@H](O)[C@@H](O)[C@H]1O; hSer = N[C@@H](CCO)C(=O)O

Biological target: T1, thermolysin (Bacillus thermoproteolyticus, UniProt P00800)
T1 sequence (P00800 233-548): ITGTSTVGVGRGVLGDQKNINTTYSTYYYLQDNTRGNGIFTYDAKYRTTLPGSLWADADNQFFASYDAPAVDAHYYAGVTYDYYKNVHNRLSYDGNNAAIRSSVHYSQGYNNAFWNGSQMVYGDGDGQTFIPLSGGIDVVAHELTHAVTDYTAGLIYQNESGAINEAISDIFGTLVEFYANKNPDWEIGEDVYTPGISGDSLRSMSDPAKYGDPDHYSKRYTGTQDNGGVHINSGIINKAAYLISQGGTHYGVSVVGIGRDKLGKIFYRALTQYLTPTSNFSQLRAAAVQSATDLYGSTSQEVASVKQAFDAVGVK
Experiment: Proteolytic stability: half-life to thermolysin degradation
Assay type: in vitro ADME
Details: for Change in Half-Life to Thermolysin Degradation: glyco-variant minus its corresponding unglycosylated CBM (e.g. 2-1), *** not used in the correlation plot; for half-life: thermolysin (isolated protease), thermolysin degradation, mean of three trials ± SD, procedures as described previously (ESI ref 18)
Method: All error bars reported are standard deviations of data achieved from three separate trials.
cellulose that were determined in accordance with our procedures as described previously 18.
The results are presented as mean of three trials ± SD. *Denotes an averaged value of four trials

SMILES	Change in Half-Life to Thermolysin Degradation [min]	half-life [min]
CC[C@H](C)[C@@H]1NC(=O)CNC(=O)CNC(=O)[C@@H](NC(=O)[C@H](CCC(N)=O)NC(=O)CNC(=O)[C@H](Cc2ccc(O)cc2)NC(=O)[C@H](Cc2c[nH]cn2)NC(=O)[C@@H](NC(=O)[C@H](CCC(N)=O)NC(=O)[C@@H](N)[C@@H](C)O)[C@@H](C)O[C@H]2O[C@H](CO)[C@@H](O)[C@H](O)[C@@H]2O[C@H]2O[C@H](CO)[C@@H](O)[C@H](O)[C@@H]2O)CSSC[C@@H]2NC(=O)[C@H]([C@@H](C)O)NC(=O)[C@H]([C@@H](C)O)NC(=O)CNC(=O)[C@H](CO)NC(=O)[C@H](C)NC(=O)[C@H](CSSC[C@@H](C(=O)N[C@@H](CC(C)C)C(=O)O)NC(=O)[C@H](CCC(N)=O)NC(=O)[C@H](CO)NC(=O)[C@H](Cc3ccc(O)cc3)NC(=O)[C@H](Cc3ccc(O)cc3)NC(=O)[C@@H]3CCCN3C(=O)[C@H](CC(N)=O)NC(=O)[C@H](CC(C)C)NC(=O)[C@H](C(C)C)NC(=O)[C@H](CCC(N)=O)NC2=O)NC(=O)[C@H](C(C)C)NC(=O)[C@H]([C@@H](C)O)NC(=O)[C@@H]2CCCN2C(=O)CNC(=O)[C@H](CO)NC(=O)[C@H](Cc2ccc(O)cc2)NC(=O)CNC1=O [CBM variant 33] (H-TQT(X2)HYGQCGGIGYSGPTVCASGTTCQVLNPYYSQCL-OH; disulfide 8-25, 19-35)	72	93.6 ± 24
CC[C@H](C)[C@@H]1NC(=O)CNC(=O)CNC(=O)[C@@H](NC(=O)[C@H](CCC(N)=O)NC(=O)CNC(=O)[C@H](Cc2ccc(O)cc2)NC(=O)[C@H](Cc2c[nH]cn2)NC(=O)[C@H](CO)NC(=O)[C@H](CCC(N)=O)NC(=O)[C@H](C)N)CSSC[C@@H]2NC(=O)[C@H]([C@@H](C)O)NC(=O)[C@H]([C@@H](C)O)NC(=O)CNC(=O)[C@H](CO)NC(=O)[C@H](C)NC(=O)[C@H](CSSC[C@@H](C(=O)N[C@@H](CC(C)C)C(=O)O)NC(=O)[C@H](CCC(N)=O)NC(=O)[C@H](CO)NC(=O)[C@H](Cc3ccc(O)cc3)NC(=O)[C@H](Cc3ccc(O)cc3)NC(=O)[C@@H]3CCCN3C(=O)[C@H](CC(N)=O)NC(=O)[C@H](CC(C)C)NC(=O)[C@H](C(C)C)NC(=O)[C@H](CCC(N)=O)NC2=O)NC(=O)[C@H](C(C)C)NC(=O)[C@H]([C@@H](C)O)NC(=O)[C@@H]2CCCN2C(=O)CNC(=O)[C@H](CO)NC(=O)[C@H](Cc2ccc(O)cc2)NC(=O)CNC1=O [CBM variant 4] (H-AQSHYGQCGGIGYSGPTVCASGTTCQVLNPYYSQCL-OH; disulfide 8-25, 19-35)	–	9.6 ± 1.2
CC[C@H](C)[C@@H]1NC(=O)CNC(=O)CNC(=O)[C@@H](NC(=O)[C@H](CCC(N)=O)NC(=O)CNC(=O)[C@H](C)NC(=O)[C@H](Cc2c[nH]cn2)NC(=O)[C@H](CO[C@H]2O[C@H](CO)[C@@H](O)[C@H](O)[C@@H]2O[C@H]2O[C@H](CO)[C@@H](O)[C@H](O)[C@@H]2O)NC(=O)[C@H](CCC(N)=O)NC(=O)[C@@H](N)[C@@H](C)O)CSSC[C@@H]2NC(=O)[C@H]([C@@H](C)O)NC(=O)[C@H]([C@@H](C)O)NC(=O)CNC(=O)[C@H](CO)NC(=O)[C@H](C)NC(=O)[C@H](CSSC[C@@H](C(=O)N[C@@H](CC(C)C)C(=O)O)NC(=O)[C@H](CCC(N)=O)NC(=O)[C@H](CO)NC(=O)[C@H](Cc3ccc(O)cc3)NC(=O)[C@H](Cc3ccc(O)cc3)NC(=O)[C@@H]3CCCN3C(=O)[C@H](CC(N)=O)NC(=O)[C@H](CC(C)C)NC(=O)[C@H](C(C)C)NC(=O)[C@H](CCC(N)=O)NC2=O)NC(=O)[C@H](C(C)C)NC(=O)[C@H]([C@@H](C)O)NC(=O)[C@@H]2CCCN2C(=O)CNC(=O)[C@H](CO)NC(=O)[C@H](Cc2ccc(O)cc2)NC(=O)CNC1=O [CBM variant 32] (H-TQS(X2)HAGQCGGIGYSGPTVCASGTTCQVLNPYYSQCL-OH; disulfide 8-25, 19-35)	1.2	6 ± 1.2
CC[C@H](C)[C@@H]1NC(=O)CNC(=O)CNC(=O)[C@@H](NC(=O)[C@H](CCC(N)=O)NC(=O)CNC(=O)[C@H](Cc2ccc(O)cc2)NC(=O)[C@H](Cc2c[nH]cn2)NC(=O)[C@H](CO[C@@H]2O[C@H](CO)[C@@H](O)[C@H](O)[C@H]2NC(C)=O)NC(=O)[C@H](CCC(N)=O)NC(=O)[C@@H](N)[C@@H](C)O)CSSC[C@@H]2NC(=O)[C@H]([C@@H](C)O)NC(=O)[C@H]([C@@H](C)O)NC(=O)CNC(=O)[C@H](CO)NC(=O)[C@H](C)NC(=O)[C@H](CSSC[C@@H](C(=O)N[C@@H](CC(C)C)C(=O)O)NC(=O)[C@H](CCC(N)=O)NC(=O)[C@H](CO)NC(=O)[C@H](Cc3ccc(O)cc3)NC(=O)[C@H](Cc3ccc(O)cc3)NC(=O)[C@@H]3CCCN3C(=O)[C@H](CC(N)=O)NC(=O)[C@H](CC(C)C)NC(=O)[C@H](C(C)C)NC(=O)[C@H](CCC(N)=O)NC2=O)NC(=O)[C@H](C(C)C)NC(=O)[C@H]([C@@H](C)O)NC(=O)[C@@H]2CCCN2C(=O)CNC(=O)[C@H](CO)NC(=O)[C@H](Cc2ccc(O)cc2)NC(=O)CNC1=O [CBM variant 23] (H-TQS(βGlcNAc)HYGQCGGIGYSGPTVCASGTTCQVLNPYYSQCL-OH; disulfide 8-25, 19-35)	5.4	19.2 ± 0.6
CC[C@H](C)[C@@H]1NC(=O)CNC(=O)CNC(=O)[C@@H](NC(=O)[C@H](CCC(N)=O)NC(=O)CNC(=O)[C@H](Cc2ccc(O)cc2)NC(=O)[C@H](Cc2c[nH]cn2)NC(=O)[C@H](CCO)NC(=O)[C@H](CCC(N)=O)NC(=O)[C@@H](N)[C@@H](C)O)CSSC[C@@H]2NC(=O)[C@H]([C@@H](C)O)NC(=O)[C@H]([C@@H](C)O)NC(=O)CNC(=O)[C@H](CO)NC(=O)[C@H](C)NC(=O)[C@H](CSSC[C@@H](C(=O)N[C@@H](CC(C)C)C(=O)O)NC(=O)[C@H](CCC(N)=O)NC(=O)[C@H](CO)NC(=O)[C@H](Cc3ccc(O)cc3)NC(=O)[C@H](Cc3ccc(O)cc3)NC(=O)[C@@H]3CCCN3C(=O)[C@H](CC(N)=O)NC(=O)[C@H](CC(C)C)NC(=O)[C@H](C(C)C)NC(=O)[C@H](CCC(N)=O)NC2=O)NC(=O)[C@H](C(C)C)NC(=O)[C@H]([C@@H](C)O)NC(=O)[C@@H]2CCCN2C(=O)CNC(=O)[C@H](CO)NC(=O)[C@H](Cc2ccc(O)cc2)NC(=O)CNC1=O [CBM variant 18] (H-TQ[hSer]HYGQCGGIGYSGPTVCASGTTCQVLNPYYSQCL-OH; disulfide 8-25, 19-35)	–	18 ± 0.6
CC[C@H](C)[C@@H]1NC(=O)CNC(=O)CNC(=O)[C@@H](NC(=O)[C@H](CCC(N)=O)NC(=O)CNC(=O)[C@H](Cc2ccc(O)cc2)NC(=O)[C@H](Cc2c[nH]cn2)NC(=O)[C@H](CO[C@H]2O[C@H](CO)[C@H](O)[C@H](O)[C@H]2O)NC(=O)[C@H](CCC(N)=O)NC(=O)[C@@H](N)[C@@H](C)O)CSSC[C@@H]2NC(=O)[C@H]([C@@H](C)O)NC(=O)[C@H]([C@@H](C)O)NC(=O)CNC(=O)[C@H](CO)NC(=O)[C@H](C)NC(=O)[C@H](CSSC[C@@H](C(=O)N[C@@H](CC(C)C)C(=O)O)NC(=O)[C@H](CCC(N)=O)NC(=O)[C@H](CO)NC(=O)[C@H](Cc3ccc(O)cc3)NC(=O)[C@H](Cc3ccc(O)cc3)NC(=O)[C@@H]3CCCN3C(=O)[C@H](CC(N)=O)NC(=O)[C@H](CC(C)C)NC(=O)[C@H](C(C)C)NC(=O)[C@H](CCC(N)=O)NC2=O)NC(=O)[C@H](C(C)C)NC(=O)[C@H]([C@@H](C)O)NC(=O)[C@@H]2CCCN2C(=O)CNC(=O)[C@H](CO)NC(=O)[C@H](Cc2ccc(O)cc2)NC(=O)CNC1=O [CBM variant 26] (H-TQS(X9)HYGQCGGIGYSGPTVCASGTTCQVLNPYYSQCL-OH; disulfide 8-25, 19-35)	16.2	30 ± 3
CC[C@H](C)[C@@H]1NC(=O)CNC(=O)CNC(=O)[C@@H](NC(=O)[C@H](CCC(N)=O)NC(=O)CNC(=O)[C@H](Cc2ccc(O)cc2)NC(=O)[C@H](Cc2c[nH]cn2)NC(=O)[C@H](CO[C@H]2O[C@H](CO)[C@@H](O)[C@H](O)[C@@H]2O[C@H]2O[C@H](COP(=O)(O)O)[C@@H](O)[C@H](O)[C@@H]2O)NC(=O)[C@H](CCC(N)=O)NC(=O)[C@@H](N)[C@@H](C)O)CSSC[C@@H]2NC(=O)[C@H]([C@@H](C)O)NC(=O)[C@H]([C@@H](C)O)NC(=O)CNC(=O)[C@H](CO)NC(=O)[C@H](C)NC(=O)[C@H](CSSC[C@@H](C(=O)N[C@@H](CC(C)C)C(=O)O)NC(=O)[C@H](CCC(N)=O)NC(=O)[C@H](CO)NC(=O)[C@H](Cc3ccc(O)cc3)NC(=O)[C@H](Cc3ccc(O)cc3)NC(=O)[C@@H]3CCCN3C(=O)[C@H](CC(N)=O)NC(=O)[C@H](CC(C)C)NC(=O)[C@H](C(C)C)NC(=O)[C@H](CCC(N)=O)NC2=O)NC(=O)[C@H](C(C)C)NC(=O)[C@H]([C@@H](C)O)NC(=O)[C@@H]2CCCN2C(=O)CNC(=O)[C@H](CO)NC(=O)[C@H](Cc2ccc(O)cc2)NC(=O)CNC1=O [CBM variant 31] (H-TQS(X8)HYGQCGGIGYSGPTVCASGTTCQVLNPYYSQCL-OH; disulfide 8-25, 19-35)	12	25.8 ± 3
